Series [1] relates to telemetered rat (transitions between SLEEP and WAKE states). Format: in vivo, Male Sprague–Dawley rats.
The nature of series [2]: Pharmacokinetic model: typical-rat PK from satellite PK experiments, oral dosing. Format: in vivo, rats. The settings on record: Sprague-Dawley, plasma.

The molecule `COC(=O)C(c1ccccc1)C1CCCCN1` (centres unmarked) [methylphenidate, Methylphenidate] registered a 50% effective concentration (EC50) in series [1] (Rattus norvegicus, intensity v (SLEEP to WAKE, clearance of sleep), plasma concentration, mean (95% confidence limits)) of 288 nM. In series [1] (delay on intensity u (acquisition of sleep), mean (95% confidence limits)), the “Teq,drug (equilibrium half-life plasma to effect compartment)” value was 24 (17, 40) min. The “overall effect on sleep/wakefulness compared to placebo” value in series [1] (rats, Figs. 4 and 6) is given as “tend to promote wakefulness”. The “relative potency in inducing sleep fragmentation, methylphenidate versus NCE” value in series [1] (rats, from estimated maximum effects) is “fivefold more potent”. For the same molecule, the “effect on the transitions between sleep states (intensities)” value in series [1] (rats, sign of Emax values, Fig. 2) is recorded as “inhibit the transitions from one sleep status to another”. Further, the Cmax stood at 44 nM in series [2] (3 mg), 146 nM in series [2] (10 mg) and 438 nM in series [2] (30 mg). Also, the Tmax in series [2] (3 mg), in series [2] (10 mg) and in series [2] (30 mg) was 12 s throughout.

Source of the values: paper PMC3215869 (Journal of Pharmacokinetics and Pharmacodynamics, 2011).
